The results in this text go back to patent US6362183B1, “Aromatic sulfonyl alpha-hydroxy hydroxamic acid compounds” (G. D. Searle & Company, priority 1997, dated 2002).

Bounds are passed on as bounds.

Test [1] relates to angiogenesis in the cornea of a mouse. Put plainly: In vivo angiogenesis assay (corneal micropocket assay). Also on record: species or system mouse (C57Bl/6). As to conditions: area of corneal neovascularization, bFGF pellet, dosed daily, scored at day five; exemplary dose 50 mg/kg bid, po. As for the experimental part:
The study of angiogenesis depends on a reliable and reproducible model for the stimulation and inhibition of a neovascular response. The corneal micropocket assay provides such a model of angiogenesis in the cornea of a mouse. See, A Model of Angiogenesis in the Mouse Cornea; Kenyon, B M, et al., Investigative Ophthalmology & Visual Science, Jul.
In this assay, uniformly sized Hydron™ pellets containing bFGF and sucralfate were prepared and surgically implanted into the stroma mouse cornea adjacent to the temporal limbus. The pellets were formed by making a suspension of 20 μL sterile saline containing […] recombinant bFGF, 10 mg of sucralfate and 10 μL of 12 percent Hydron™ in ethanol. The slurry was then deposited on a 10×10 mm piece of sterile nylon mesh. After drying, the nylon fibers of the mesh were separated to release the pellets.
The corneal pocket was made by anesthetizing a 7 week old C57Bl/6 female mouse, then proptosing the eye with a jeweler's forceps. Using a dissecting microscope, a central, intrastromal linear keratotomy of approximately 0.6 mm in length was performed with a #15 surgical blade, parallel to the insertion of the lateral rectus muscle. Using a modified cataract knife, a lamellar micropocket was dissected toward the temporal limbus. The pocket was extended to within 1.0 mm of the temporal limbus. A single pellet was placed on the corneal surface at the base of the pocket with a jeweler's forceps. The pellet was then advanced to the temporal end of the pocket. Antibiotic ointment was then applied to the eye.
Mice were dosed on a daily basis for the duration of the assay. Dosing of the animals was based on bioavailability and overall potency of the compound. An exemplary dose is 50 mg/kg bid, po. Neovascularization of the corneal stroma begins at about day three and was permitted to continue under the influence of the assayed compound until day five. At day five, the degree of angiogenic inhibition was scored by viewing the neovascular progression with a slit lamp microscope.
The mice were anesthetized and the studied eye was once again proptosed. The maximum vessel length of neovascularization, extending from the limbal vascular plexus toward the pellet was measured. In addition, the contiguous circumferential zone of neovascularization was measured as clock hours, where 30 degrees of arc equals one clock hour. The area of angiogenesis was calculated as follows. [formula]
The studied mice were thereafter compared to control mice and the difference in the area of neovascularization was recorded.

The target of the next test is T1, MMP-2 (Homo sapiens, UniProt P08253).
T1 sequence (P08253 110-660): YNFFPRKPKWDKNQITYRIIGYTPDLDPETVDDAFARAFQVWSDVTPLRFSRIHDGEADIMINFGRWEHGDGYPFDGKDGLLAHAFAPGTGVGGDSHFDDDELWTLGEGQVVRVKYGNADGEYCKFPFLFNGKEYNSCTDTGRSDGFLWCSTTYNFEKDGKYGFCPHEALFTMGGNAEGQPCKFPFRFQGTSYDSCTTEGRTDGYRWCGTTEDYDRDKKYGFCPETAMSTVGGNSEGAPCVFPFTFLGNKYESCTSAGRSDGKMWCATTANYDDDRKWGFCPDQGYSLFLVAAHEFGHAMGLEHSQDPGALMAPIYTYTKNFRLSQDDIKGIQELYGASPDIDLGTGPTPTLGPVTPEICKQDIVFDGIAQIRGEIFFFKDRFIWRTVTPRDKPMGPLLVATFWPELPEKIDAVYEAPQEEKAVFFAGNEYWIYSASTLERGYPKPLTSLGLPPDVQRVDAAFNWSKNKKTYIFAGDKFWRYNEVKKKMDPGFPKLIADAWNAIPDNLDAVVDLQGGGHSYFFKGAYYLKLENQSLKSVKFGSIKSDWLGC
Put plainly: In vitro metalloprotease inhibition, fluorogenic peptide assay. It counts as biochemical. As to conditions: MCA peptide substrate 4 μM, room temperature, pH 7.5. The procedure: (§1) Briefly, 4-aminophenylmercuric acetate (APMA) or trypsin activated MMPs were incubated with various concentrations of the inhibitor compound at room temperature for 5 minutes.
(§2) MCA-ProLeuGlyLeuDpaAlaArgNH^2, wherein MCA is methoxycoumarin and Dpa is 3-(2,4-dinitrophenyl)-L-2,3-diaminopropionyl alanine.
(§3) The buffer used for assays contained 100 mM Tris-HCl, 100 mM NaCl, 10 mM CaCl2 and 0.05 percent polyethyleneglycol (23) lauryl ether at a pH value of 7.5.

In a further test the target is MMP-3 (Homo sapiens, UniProt P08254). The test is described as above. It counts as biochemical. The settings on record: MCA peptide substrate 4 μM, room temperature, pH 7.5. The procedure:
as §1, §2, §3

The target of another test is MMP-8 (Homo sapiens, UniProt P22894). The description is as above. The settings on record: MCA peptide substrate 4 μM, room temperature, pH 7.5. It counts as biochemical. As for the experimental part: as §1, §2, §3
Another test addresses MMP-9 (Homo sapiens, UniProt P14780). Described as above. It counts as biochemical. As to conditions: MCA peptide substrate 4 μM, room temperature, pH 7.5. As for the experimental part:
as §1, §2, §3

Another test addresses T2, recombinant human MMP-1 (Homo sapiens, UniProt P03956).
T2 construct: made in house; host or cells: transfected HT-1080 cells
T2 sequence (P03956 100-469): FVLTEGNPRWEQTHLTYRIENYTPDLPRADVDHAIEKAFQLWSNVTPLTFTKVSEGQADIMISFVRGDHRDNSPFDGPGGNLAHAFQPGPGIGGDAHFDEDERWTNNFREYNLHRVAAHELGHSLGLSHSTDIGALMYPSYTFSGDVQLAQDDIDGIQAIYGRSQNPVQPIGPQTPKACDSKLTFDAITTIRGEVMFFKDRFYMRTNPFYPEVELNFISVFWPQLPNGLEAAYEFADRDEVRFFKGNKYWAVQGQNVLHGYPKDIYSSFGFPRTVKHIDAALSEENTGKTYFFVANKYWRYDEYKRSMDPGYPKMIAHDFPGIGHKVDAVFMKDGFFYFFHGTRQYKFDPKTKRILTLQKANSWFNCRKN
Described as above. It counts as biochemical. The settings on record: APMA-activated enzyme, MCA peptide substrate 4 μM, room temperature, pH 7.5. As for the experimental part: as §1
(§4) More specifically, recombinant human MMP-13 and MMP-1 enzymes were prepared in laboratories of the assignee. MMP-13 was expressed in baculovirus as a proenzyme, and purified first over a heparin agarose column and then over a chelating zinc chloride column. The proenzyme was activated by APMA for use in the assay. MMP-1 expressed in transfected HT-1080 cells was provided by Dr. Howard Welgus of Washington University, St. Louis, Mo. The enzyme was also activated using APMA and was then purified over a hydroxamic acid column.
as §2, §3

In a further test the target is T3, recombinant human MMP-13 (Homo sapiens, UniProt P45452).
T3 construct: made in house
The description is as above. It counts as biochemical. As to conditions: for IC50: APMA-activated enzyme, MCA peptide substrate 4 μM, room temperature, pH 7.5. As for the experimental part: as §1, §4, §2, §3

Sequence of MMP-3 (P08254 100-477, species assumed): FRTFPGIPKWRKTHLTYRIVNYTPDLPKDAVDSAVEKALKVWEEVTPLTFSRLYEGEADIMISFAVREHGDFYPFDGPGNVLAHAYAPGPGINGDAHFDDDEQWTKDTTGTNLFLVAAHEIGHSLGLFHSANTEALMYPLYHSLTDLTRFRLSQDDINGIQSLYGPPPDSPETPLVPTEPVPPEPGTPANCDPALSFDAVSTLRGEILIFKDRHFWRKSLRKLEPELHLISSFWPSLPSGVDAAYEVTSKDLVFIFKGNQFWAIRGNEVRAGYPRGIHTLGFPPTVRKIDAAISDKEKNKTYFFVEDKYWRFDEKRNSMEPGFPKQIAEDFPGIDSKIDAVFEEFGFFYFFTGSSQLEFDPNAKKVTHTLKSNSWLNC
Sequence of MMP-9 (P14780 107-707 limits assumed, species assumed): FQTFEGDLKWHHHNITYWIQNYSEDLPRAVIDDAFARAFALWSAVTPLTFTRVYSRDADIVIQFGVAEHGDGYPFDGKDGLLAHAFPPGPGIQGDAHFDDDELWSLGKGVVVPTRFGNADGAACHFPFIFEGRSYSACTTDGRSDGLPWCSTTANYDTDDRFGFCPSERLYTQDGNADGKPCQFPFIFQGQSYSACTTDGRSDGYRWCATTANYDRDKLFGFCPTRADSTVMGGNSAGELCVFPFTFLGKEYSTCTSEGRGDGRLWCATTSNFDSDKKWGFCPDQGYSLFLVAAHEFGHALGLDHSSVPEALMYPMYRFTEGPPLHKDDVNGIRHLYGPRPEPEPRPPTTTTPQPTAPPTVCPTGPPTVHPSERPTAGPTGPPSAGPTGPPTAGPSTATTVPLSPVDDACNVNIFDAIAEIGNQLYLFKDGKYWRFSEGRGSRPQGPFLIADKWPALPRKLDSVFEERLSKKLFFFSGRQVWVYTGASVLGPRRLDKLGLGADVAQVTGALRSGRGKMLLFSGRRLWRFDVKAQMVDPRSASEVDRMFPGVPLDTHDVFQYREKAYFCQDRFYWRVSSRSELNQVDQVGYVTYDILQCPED
Sequence of MMP-8 (P22894 101-467, species assumed): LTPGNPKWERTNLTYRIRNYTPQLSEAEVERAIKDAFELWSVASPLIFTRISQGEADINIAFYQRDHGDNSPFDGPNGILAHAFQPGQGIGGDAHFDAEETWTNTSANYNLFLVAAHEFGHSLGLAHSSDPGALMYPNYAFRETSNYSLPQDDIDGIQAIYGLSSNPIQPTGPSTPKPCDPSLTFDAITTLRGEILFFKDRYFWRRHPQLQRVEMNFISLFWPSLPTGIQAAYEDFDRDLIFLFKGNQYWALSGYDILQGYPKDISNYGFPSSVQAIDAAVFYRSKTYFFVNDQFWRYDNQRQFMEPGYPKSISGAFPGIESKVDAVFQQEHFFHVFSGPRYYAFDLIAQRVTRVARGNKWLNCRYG

For orientation: IC50 means the point on the concentration scale where inhibition reaches its midpoint. Take `Cl.O=C(NO)C(O)(CN1CCOCC1)CS(=O)(=O)c1ccc(Oc2ccccc2)cc1` (stereo not drawn) [Example 3, N,α-dihydroxy-α-[[(4-phenoxyphenyl)sulfonyl]methyl]-4-morpholinepropanamide, monohydrochloride]: in test [1], the “Percentage of Control” value is on record as 77.4%. Besides, the concentration for half-maximal inhibition (IC50) against MMP-2 was determined as 1 nM; on MMP-3, 166 nM; against MMP-8, 4 nM; against MMP-9 it was 20 nM; on recombinant human MMP-1, 6000 nM; on recombinant human MMP-13, 3 nM.

With `O=C(NO)C(O)CS(=O)(=O)c1ccc(Oc2ccccc2)cc1` (stereo not shown) [Example 9], in test [1], the “Percentage of Control” value was found to be 61.1%. Further, the IC50 against MMP-2 came to 0.4 nM; against MMP-9 it was 16 nM; at recombinant human MMP-1 it was 3000 nM; on recombinant human MMP-13, 0.2 nM. Besides, the “inhibitory activity against MMP-13 (in words)” value on recombinant human MMP-13 (discussion of Table 51) is “excellent activity”.

Consider `O=C(NO)C(O)(CO)CS(=O)(=O)c1ccc(Oc2ccccc2)cc1` (stereo not shown) [Example 2, N,2-dihydroxy-2-(hydroxymethyl)-3-[(4-phenoxyphenyl)-sulfonyl]propanamide], for which, in test [1], the “Percentage of Control” value is on record as 53.4%. Besides, the IC50 at MMP-2 worked out at 1 nM; on MMP-3, 44 nM; at MMP-8, 4.1 nM; against MMP-9, 7 nM; on recombinant human MMP-1 it was 470 nM; at recombinant human MMP-13 it was 1.2 nM.

For the compound `O=C(NO)C(O)CS(=O)(=O)c1ccc(Sc2ccccc2)cc1` (stereo not shown) [Example 12, N,2-dihydroxy-3-[[4-(phenylthio)phenyl]sulfonyl]propanamide], the IC50 at MMP-2 was 2 nM; against MMP-9, 175 nM; at recombinant human MMP-1 it was greater than 10000 nM; at recombinant human MMP-13, 3.7 nM.

Take `Cc1ccc(Oc2ccc(S(=O)(=O)CC(O)(CO)C(=O)NO)cc2)cc1C` (stereo not shown) [Example 4, 3-[[4-(3,4-dimethylphenoxy)phenyl]sulfonyl]-N,2-dihydroxy-2-(hydroxymethyl)propanamide]: the “Percentage of Control” value in test [1] amounted to 65.2%. In addition, the IC50 against MMP-2 worked out at 0.4 nM; on MMP-3, 48.5 nM; at MMP-8, 4.5 nM; against MMP-9, 12.4 nM; at recombinant human MMP-1 it was 9000 nM; at recombinant human MMP-13, 0.4 nM.

`Cc1ccc(Oc2ccc(S(=O)(=O)CC(O)(CN3CCOCC3)C(=O)NO)cc2)cc1C` (stereo not drawn) [Example 7, α-[[[4-(3,4-dimethylphenoxy)-phenyl]sulfonyl]methyl]-N-2-dihydroxy-4-morpholineproanamide]: the IC50 against MMP-2 is 2 nM; against MMP-3 it was 51.8 nM; at MMP-8, 4 nM; against MMP-9 it was 13 nM; at recombinant human MMP-1, greater than 10000 nM; at recombinant human MMP-13, 2.1 nM.

Turning to `O=C(NO)[C@@H](O)CS(=O)(=O)c1ccc(Oc2ccccc2)cc1` [Example 10, (R)—N,2-dihydroxy-3-[(4-phenoxyphenyl)sulfonyl]propanamide], the IC50 was 0.4 nM on MMP-2, 18 nM on MMP-9, 4000 nM at recombinant human MMP-1 and 1 nM on recombinant human MMP-13.

On to `CC(O)(CS(=O)(=O)c1ccc(Oc2ccccc2)cc1)C(=O)NO` (stereo not shown) [Example 1, N,2-dihydroxy-2-methyl-3-[(4-phenoxyphenyl)sulfonyl]propanamide], for which the “Percentage of Control” value in test [1] amounted to 51.9%. For the same compound, the IC50 is 0.5 nM against MMP-2; 30 nM against MMP-3; 2.5 nM on MMP-8; 4.8 nM against MMP-9; 1100 nM on recombinant human MMP-1; 1.1 nM at recombinant human MMP-13.

As for `CC(O)(CS(=O)(=O)c1ccc(NC(=O)c2ccccc2)cc1)C(=O)NO` (stereo not shown) [Example 16, N-[4-[[2-hydroxy-3-(hydroxyamino)-2-methyl-3-oxopropyl]-sulfonyl]phenyl]benzamide], the “Percentage of Control” value in test [1] came out at 41.6%. Further, the IC50 against MMP-2 was 0.8 nM; at MMP-9 it was 1160 nM; on recombinant human MMP-1, greater than 10000 nM; on recombinant human MMP-13, 110 nM.

Take `O=C(NO)C(O)(CO)CS(=O)(=O)c1ccc(Sc2ccccc2)cc1` (stereo not shown) [Example 13]: the IC50 on MMP-2 is 2.3 nM; on MMP-9, 70 nM; on recombinant human MMP-1, greater than 10000 nM; on recombinant human MMP-13 it was 5 nM.

`C[C@@](O)(CS(=O)(=O)c1ccc(Oc2ccccc2)cc1)C(=O)NO` [Example 1A, (S)—N,2-dihydroxy-2-methyl-3-[(4-phenoxyphenyl)sulfonyl]propanamide]: the “Percentage of Control” value in test [1] was determined as 62.7%. Moreover, the IC50 against MMP-2 was 0.39 nM; on MMP-9, 1.7 nM; at recombinant human MMP-1, 1010 nM; at recombinant human MMP-13, 0.75 nM. Also, at recombinant human MMP-13 (Example 1A versus Example 1B), the “ratio of inhibition of MMP-1 to inhibition of MMP-13, relative to the compound of opposite configuration” value is listed as “about 2 times”.

On to `Cc1ccc(Oc2ccc(S(=O)(=O)CC(C)(O)C(=O)NO)cc2)cc1C` (stereo not shown) [Example 5, 3-[[4-(3,4-dimethylphenoxy)phenyl]sulfonyl]-N,2-dihydroxy-2-methylpropanamide], for which the “Percentage of Control” value in test [1] is listed as 57.8%. Besides, the IC50 was 2.4 nM on MMP-2; 26.8 nM against MMP-3; 2.5 nM at MMP-8; 3.4 nM at MMP-9; greater than 10000 nM on recombinant human MMP-1; 1.3 nM at recombinant human MMP-13.

For the compound `C[C@](O)(CS(=O)(=O)c1ccc(Oc2ccccc2)cc1)C(=O)NO` [Example 1B, (R)—N,2-dihydroxy-2-methyl-3-[(4-phenoxyphenyl)sulfonyl]-propanamide], in test [1], the “Percentage of Control” value is given as 49.3%. For the same compound, the half-maximal inhibitory concentration (IC50) at MMP-2 is 11 nM; against MMP-9 it was 328 nM; on recombinant human MMP-1 it was greater than 10000 nM; at recombinant human MMP-13 it was 21.5 nM.

As to `O=C(Nc1ccc(S(=O)(=O)CC(O)C(=O)NO)cc1)c1ccccc1` (stereo not shown) [Example 23, N-[4-[[2-hydroxy-3-(hydroxyamino)-3-oxopropyl]sulfonyl]phenyl]benzamide], the IC50 is 2.8 nM at MMP-2, 1330 nM against MMP-9, greater than 10000 nM on recombinant human MMP-1 and 220 nM on recombinant human MMP-13.
